{"source": "patent US8338381B2", "about": "“Composition and method for the treatment of eye disease” (ADER Enterprise, Inc., priority 2003, dated 2012)", "origin": "cited, not measured here", "key": {"[1]": {"conditions": "administered directly to the eye; Babizhayev 1996"}, "eye cataracts": {"system": "eye cataracts", "conditions": "administered directly to the eye; Babizhayev 1996"}}, "data": [{"smiles": "NCCC(=O)N[C@@H](Cc1cnc[nH]1)C(=O)O", "note": "[L-carnosine, β-alanyl-L-histidine]", "values": [{"measurement": "accumulation in the aqueous humor of the eye", "setting": "[1]", "result": "does not lead to accumulation in the aqueous humor of the eye"}, {"measurement": "effect on eye cataracts beyond placebo control", "setting": "eye cataracts", "result": "does not lead to accumulation in the aqueous humor of the eye or have any significant effect on eye cataracts beyond that of a placebo control"}]}]}
